The source of these data is patent US20090318446A1, “4-(1H-Indol-3-yl)-Pyrimidin-2-Ylamine Derivatives and Their Use in Therapy” (Cyclacel Limited, priority 2005, published 2009).

One test concerns Mia-PaCa-2. Nature of the test: MTT cytotoxicity assay, Mia-PaCa-2. Format: cell-based. The settings on record: Homo sapiens, after incubation. How it is done:
(§1) The compounds of the invention were subjected to a standard cellular proliferation assay using human tumour cell lines obtained from the ATCC (American Type Culture Collection, 10801 University Boulevard, Manessas, Va. 20110-2209, USA). […] C.; Thomas, D. G.; Darling, J. L. Anti Cancer Drugs 1996, 7, 331-8; Loveland, B. E.; Johns, T. G.; Mackay, 1. R.; Vaillant, F.; Wang, Z. X.; Hertzog, P. J. Biochemistry International 1992, 27, 501-10). In short: cells were seeded into 96-well plates according to doubling time and incubated overnight at 37° C. […] MTT was made up as a stock of 5 mg/mL in cell media and filter-sterilised. Media was removed from cells followed by a wash with 200 μL PBS. MTT solution was then added at 20 μL per well and incubated in the dark at 37° C. for 4 h MTT solution was removed and cells again washed with 200 μL PBS. MTT dye was solubilised with 200 μL per well of DMSO with agitation. Absorbance was read at 540 nm and data analysed using curve-fitting software (GraphPad Prism version 3.00 for Windows, GrapbPad Software, San Diego Calif. USA) to determine IC50 values (concentration of test compound which inhibits cell growth by 50%).
In general terms: Formazan colour is commonly taken as a measure of viable cells.

The target in another test is T1, aurora-B (Homo sapiens, UniProt Q96GD4).
T1 construct: purchased Upstate, Dundee, UK
Nature of the test: Aurora-B (human) kinase assay. Format: biochemical. The settings on record: Table 3; read-out: Kinase inhibition Aurora B. How it is done:
This was achieved by measurement of incorporation of radioactive phosphate from ATP into Kemptide substrate (LRRASLG), upon phosphorylation by commercially obtained aurora-B (human, Upstate, Dundee, UK). Assays were performed using 96-well plates and appropriate assay buffers (20 mM Tris, 25 mM β-glycerophosphate, 5 mM EGTA, 1 mM DTT, 1 mM sodium vanadate, pH 7.5), into which were added 75 ng of pre-activated enzyme with 500 μM substrate (Kemptide). The reactions were initiated by addition of MgATP mix (15 mM MgCl2+100 μM ATP with 15-25 kBq per well of [γ-^32P]-ATP) and mixtures incubated for 60 min at 30° C. Reactions were stopped by addition of an equal volume of 75 mM aq orthophosphoric acid, followed by filtration through p81 filterplates (Whatman Polyfiltronics, Kent, UK). After washing 4 times with 75 mM aq orthophosphoric acid, plates were dried, scintillant added and incorporated radioactivity measured in a scintillation counter (TopCount, Packard Instruments, Pangbourne, Berks, UK). Compounds for kinase assay were made up as 10 mM stocks in DMSO and diluted into 10% DMSO in assay buffer. Data was analysed using curve-fitting software (XLfit version 4.0.2, IDBS, Guildford, Surrey, UK) to determine IC50 values (concentration of test compound which inhibits kinase activity by 50%).
Aurora-B (human, Upstate, Dundee, UK) was pre-activated immediately prior to kinase assay in appropriate buffers (20 mM Tris, 25 mM β-glycerophosphate, 5 mM EGTA, 1 mM DTT, 1 mM sodium vanadate, pH 7.5) by incubating 15 μg of enzyme with 4 μg INCENP (Upstate, Dundee, UK) in the presence of MgATP mix (15 mM MgCl2+100 μM ATP) for 15 min at 30° C.

The next test concerns the target CDK7/cyclin H (Homo sapiens, UniProt P50613). The test can be described thus: CDK 7 assay. The settings on record: Table 3; read-out: Kinase inhibition CDK7H. Format: biochemical. Here is the method:
CTD peptide substrate (biotinyl-Ahx-(Tyr-Ser-Pro-Thr-Ser-Pro-Ser)4-NH2; 1-2 mg/mL) and recombinant human CDK7/cyclin H, CDK9/cyclin TI, or CDK9/cyclin K (0.5-2 μg) were incubated for 45 min at 30° C. in the presence of varying amounts of test compound in 20 mM MOPS pH 7.2, 25 mM β-glycerophosphate, 5 mM EGTA, 1 mM DTT, 1 mM sodium vanadate, 15 mM MgCl2, and 100 μM ATP (containing a trace amount of ^32PγATP) in a total volume of 25 μL in a 96-well microtiter plate. The reaction was stopped by placing the plate on ice for 2 min. Avidin (50 μg) was added to each well, and the plate was incubated at room temp for 30 min. The samples were transferred to a 96-well P81 filter plate, and washed (4×200 μL per well) with 75 mM phosphoric acid. Microscint 40 scintillation liquid (50 μL) was added to each well, and the amount of ^32P incorporation for each sample was measured using a Packard Topcount microplate scintillation counter.

A further test concerns the target T2, Flt-3 (Homo sapiens, UniProt P36888).
T2 construct: purchased Upstate, Dundee, UK
T2 sequence (P36888 564-993 limits assumed): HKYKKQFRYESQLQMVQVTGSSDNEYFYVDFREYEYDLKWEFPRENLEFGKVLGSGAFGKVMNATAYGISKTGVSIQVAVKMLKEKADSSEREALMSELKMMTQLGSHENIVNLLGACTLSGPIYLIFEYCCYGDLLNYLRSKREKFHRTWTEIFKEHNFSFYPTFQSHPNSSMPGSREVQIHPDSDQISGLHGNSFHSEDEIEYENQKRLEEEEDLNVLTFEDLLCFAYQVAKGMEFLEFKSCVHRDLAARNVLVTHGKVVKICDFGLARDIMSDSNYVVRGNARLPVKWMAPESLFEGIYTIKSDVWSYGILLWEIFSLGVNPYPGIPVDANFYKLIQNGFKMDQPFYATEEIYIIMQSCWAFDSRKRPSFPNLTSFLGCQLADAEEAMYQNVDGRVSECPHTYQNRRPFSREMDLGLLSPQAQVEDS
Nature of the test: Flt3 kinase assay. The following applies: Table 3; read-out: Kinase inhibition Flt3. The format is biochemical. Here is the method: This was achieved by measurement of incorporation of radioactive phosphate from ATP into myelin basic protein (MBP) substrate, upon phosphorylation by commercially obtained Flt-3 Upstate, Dundee, UK). Assays were performed using 96-well plates and appropriate assay buffers (20 mM Tris, 25 mM β-glycerophosphate, 5 mM EGTA, 1 mM DTT, 1 mM sodium vanadate, pH 7.5), into which were added 5 ng of active enzyme with 0.4 mg/ml substrate (MBP). The reactions were initiated by addition of MgATP mix (15 mM MgCl2+100 μM ATP with 15-25 kBq per well of [γ-^32P]-ATP) and mixtures incubated for 30 min at 30° C. Reactions were stopped by addition of an equal volume of 75 mM aq orthophosphoric acid, followed by filtration through p81 filterplates (Whatman Polyfiltronics, Kent, UK). After washing 4 times with 75 mM aq orthophosphoric acid, plates were dried, scintillant added and incorporated radioactivity measured in a scintillation counter (TopCount, Packard Instruments, Pangbourne, Berks, UK). Compounds for kinase assay were made up as 10 mM stocks in DMSO and diluted into 10% DMSO in assay buffer. Data was analysed using curve-fitting software (XLfit version 4.0.2, IDBS, Guildford, Surrey, UK) to determine IC50 values (concentration of test compound which inhibits kinase activity by 50%).

Another test concerns A2780. The test can be described thus: MTT cytotoxicity assay, A2780. The format is cell-based. The settings on record: Homo sapiens, after incubation. Here is the method:
as §1

For the next test, the target named is CDK2/cyclin E (Homo sapiens, UniProt P24941). The test can be described thus: Kinase assay CDK2/cyclin E. Format: biochemical. The settings on record: Table 3; read-out: Kinase inhibition CDK2E. Here is the method:
The compounds from the examples above were investigated for their ability to inhibit the enzymatic activity of various protein kinases. This was achieved by measurement of incorporation of radioactive phosphate from ATP into appropriate polypeptide substrates. Recombinant protein kinases and kinase complexes were produced or obtained commercially. Assays were performed using 96-well plates and appropriate assay buffers (typically 25 mM β-glycerophosphate, 20 mM MOPS, 5 mM EGTA, 1 mM DTT, 1 mM […], pH 7.4), into which were added 2-4 μg of active enzyme with appropriate substrates. The reactions were initiated by addition of Mg/ATP mix (15 mM MgCl2+100 μM ATP with 30-50 kBq per well of [γ-^32P]-ATP) and mixtures incubated as required at 30° C. Reactions were stopped on ice, followed by filtration through p81 filterplates or GF/C filterplates (Whatman Polyfiltronics, Kent, UK). After washing 3 times with 75 mM aq orthophosphoric acid, plates were dried, scintillant added and incorporated radioactivity measured in a scintillation counter (TopCount, Packard Instruments, Pangbourne, Berks, UK). Compounds for kinase assay were made up as 10 mM stocks in DMSO and diluted into 10% DMSO in assay buffer. Data was analysed using curve-fitting software (GraphPad Prism version 3.00 for Windows, GraphPad Software, San Diego Calif. USA) to determine IC50 values (concentration of test compound which inhibits kinase activity by 50%).

The next test deals with PKC-α (Homo sapiens, UniProt P17252). The settings on record: reported in reference [74]; cited from earlier work.
In another test the target is PKC-δ (Homo sapiens, UniProt Q05655). The settings on record: reported in reference [74]; cited from earlier work.
A further test addresses EGF-R (Homo sapiens, UniProt P00533). The settings on record: reported in reference [74]; cited from earlier work.

Sequence of EGF-R (P00533 25-1210, species assumed): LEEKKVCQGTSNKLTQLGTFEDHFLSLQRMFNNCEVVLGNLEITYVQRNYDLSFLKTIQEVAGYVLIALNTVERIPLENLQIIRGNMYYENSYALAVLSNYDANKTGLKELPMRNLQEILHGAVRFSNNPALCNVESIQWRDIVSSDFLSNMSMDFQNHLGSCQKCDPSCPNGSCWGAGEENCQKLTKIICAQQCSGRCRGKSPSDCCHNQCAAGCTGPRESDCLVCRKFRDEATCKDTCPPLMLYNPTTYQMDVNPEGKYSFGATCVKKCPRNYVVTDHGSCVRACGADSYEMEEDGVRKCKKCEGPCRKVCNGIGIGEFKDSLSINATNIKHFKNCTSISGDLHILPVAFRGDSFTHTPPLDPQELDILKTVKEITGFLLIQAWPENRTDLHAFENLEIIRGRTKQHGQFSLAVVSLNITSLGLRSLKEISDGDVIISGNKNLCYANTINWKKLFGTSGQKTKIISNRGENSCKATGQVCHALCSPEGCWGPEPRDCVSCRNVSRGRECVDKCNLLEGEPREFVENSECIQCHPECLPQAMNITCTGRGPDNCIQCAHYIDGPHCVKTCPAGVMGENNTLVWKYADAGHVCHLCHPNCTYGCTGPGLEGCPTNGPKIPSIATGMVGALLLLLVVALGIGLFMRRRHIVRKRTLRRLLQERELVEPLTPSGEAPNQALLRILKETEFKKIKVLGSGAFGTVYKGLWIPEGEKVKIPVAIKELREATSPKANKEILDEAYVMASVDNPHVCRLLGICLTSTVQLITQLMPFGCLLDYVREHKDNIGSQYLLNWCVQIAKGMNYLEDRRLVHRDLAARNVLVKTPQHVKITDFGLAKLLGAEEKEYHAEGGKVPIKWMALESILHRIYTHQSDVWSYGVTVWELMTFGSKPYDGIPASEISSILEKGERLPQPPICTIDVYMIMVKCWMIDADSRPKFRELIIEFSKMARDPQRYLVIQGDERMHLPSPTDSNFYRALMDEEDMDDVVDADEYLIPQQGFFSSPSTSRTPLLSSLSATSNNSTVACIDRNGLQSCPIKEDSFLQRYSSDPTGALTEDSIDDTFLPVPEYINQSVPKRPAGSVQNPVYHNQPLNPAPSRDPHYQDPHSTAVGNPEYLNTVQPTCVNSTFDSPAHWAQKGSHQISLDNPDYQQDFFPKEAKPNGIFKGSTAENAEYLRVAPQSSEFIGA
Sequence of CDK7/cyclin H (P50613 whole entry): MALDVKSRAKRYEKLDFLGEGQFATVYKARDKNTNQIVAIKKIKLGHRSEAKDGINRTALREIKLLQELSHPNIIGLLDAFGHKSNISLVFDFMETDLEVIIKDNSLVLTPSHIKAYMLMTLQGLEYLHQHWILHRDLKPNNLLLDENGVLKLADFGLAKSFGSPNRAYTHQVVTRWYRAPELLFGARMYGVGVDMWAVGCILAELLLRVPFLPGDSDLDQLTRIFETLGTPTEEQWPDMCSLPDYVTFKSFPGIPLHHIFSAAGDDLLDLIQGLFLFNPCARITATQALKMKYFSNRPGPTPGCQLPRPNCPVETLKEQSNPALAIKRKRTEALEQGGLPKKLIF
Sequence of CDK7/cyclin H (P51946 whole entry partner): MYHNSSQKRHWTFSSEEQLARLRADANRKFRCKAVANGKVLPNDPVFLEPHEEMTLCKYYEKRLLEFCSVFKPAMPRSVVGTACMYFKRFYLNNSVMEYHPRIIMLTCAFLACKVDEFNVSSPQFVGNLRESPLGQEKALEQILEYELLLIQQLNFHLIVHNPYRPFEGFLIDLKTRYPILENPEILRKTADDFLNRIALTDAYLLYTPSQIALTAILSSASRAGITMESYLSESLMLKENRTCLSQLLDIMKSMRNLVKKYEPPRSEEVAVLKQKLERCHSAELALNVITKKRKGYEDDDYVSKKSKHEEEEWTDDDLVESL
Sequence of PKC-δ (Q05655 whole entry): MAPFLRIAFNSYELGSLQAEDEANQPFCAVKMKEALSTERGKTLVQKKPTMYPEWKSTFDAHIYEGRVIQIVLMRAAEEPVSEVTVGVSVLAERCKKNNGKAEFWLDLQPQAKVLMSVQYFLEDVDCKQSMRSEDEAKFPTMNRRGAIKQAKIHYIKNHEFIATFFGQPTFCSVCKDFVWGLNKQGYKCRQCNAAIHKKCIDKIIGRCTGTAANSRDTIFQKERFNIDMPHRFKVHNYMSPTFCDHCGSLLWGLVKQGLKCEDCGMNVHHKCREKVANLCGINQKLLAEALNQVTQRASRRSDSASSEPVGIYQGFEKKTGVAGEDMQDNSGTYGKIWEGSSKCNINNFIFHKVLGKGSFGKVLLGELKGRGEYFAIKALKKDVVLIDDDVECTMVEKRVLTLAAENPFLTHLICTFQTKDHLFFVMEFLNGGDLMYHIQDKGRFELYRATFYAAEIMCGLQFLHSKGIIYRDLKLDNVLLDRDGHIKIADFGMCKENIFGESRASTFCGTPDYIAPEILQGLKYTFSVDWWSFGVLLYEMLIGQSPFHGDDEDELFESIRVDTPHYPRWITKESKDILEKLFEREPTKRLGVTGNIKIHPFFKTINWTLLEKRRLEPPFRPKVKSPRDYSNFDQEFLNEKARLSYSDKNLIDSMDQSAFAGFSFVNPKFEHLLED
T1 sequence (Q96GD4 whole entry): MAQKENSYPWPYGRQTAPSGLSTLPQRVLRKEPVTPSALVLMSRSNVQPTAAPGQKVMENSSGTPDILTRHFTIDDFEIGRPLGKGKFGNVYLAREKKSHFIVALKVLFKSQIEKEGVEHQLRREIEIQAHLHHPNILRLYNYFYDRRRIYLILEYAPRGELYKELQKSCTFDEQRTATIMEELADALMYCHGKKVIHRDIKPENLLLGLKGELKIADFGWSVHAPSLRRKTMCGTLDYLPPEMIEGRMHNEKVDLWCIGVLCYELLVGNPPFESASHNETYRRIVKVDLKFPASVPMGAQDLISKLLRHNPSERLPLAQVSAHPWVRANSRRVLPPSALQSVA

For `c1ccc(CN2CCN(c3ccc(Nc4nccc(-c5c[nH]c6ccccc56)n4)cc3)CC2)cc1` [Compound 8, 4-(1H-indol-3-yl)-N-(4-benzylpiperazin-1-ylphenyl)pyrimidin-2-amine], the IC50 in the test on Mia-PaCa-2 was found to be 5.46 µM; at aurora-B, 1.41 µM; at CDK7/cyclin H, 6.04 µM; on Flt-3, 0.0788 µM; in the test on A2780, 5.43 µM.
Take `Cc1cc(N2CCOCC2)ccc1Nc1nccc(-c2c[nH]c3ccccc23)n1` [Compound 11, 4-(1H-indol-3-yl)-N-(2-methyl-4-morpholin-4-ylphenyl)pyrimidin-2-amine]: the IC50 with Mia-PaCa-2 came to 6.82 µM; on CDK2/cyclin E it was 0.332 µM; on Flt-3, 0.726 µM; in the test on A2780, 4.66 µM.
Regarding `FC(F)C(F)(F)Oc1cccc(Nc2nccc(-c3c[nH]c4ccccc34)n2)c1` [[4-(1H-indol-3-yl)-pyrimidin-2-yl]-[3-(1,1,2,2-tetrafluoro-ethoxy)-phenyl]-amine], the “kinase inhibition PKC-α” value on PKC-α is reported as “shown to inhibit”. Further, the “kinase inhibition PKC-δ” value on PKC-δ is on record as “shown to inhibit”. Moreover, the “kinase inhibition EGF-R” value at EGF-R is “shown to inhibit”.
